Laboratory results: publication PMC9775191, “A Subset Screen of the Compounds Australia Scaffold Library Identifies 7-Acylaminodibenzoxazepinones as Potent and Selective Hits for Anti-Giardia Drug Discovery” (Biomedicines, 2022)
Where two headings read alike, the source gives them in different places.

Tests used:
[1] = system: G. duodenalis BRIS/91/HEPU/1279; assay: Giardia dose response assay, assemblage B; type: cell-based, Giardia duodenalis; details: for IC50 / inhibition at 10 µM: Giardia duodenalis; for inhibition at 10 µM: read-out: % inhibition @ 10µM 48h (comment), Table S2 comment
How it was run: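 Assemblage B trophozoites (BRIS/91/HEPU/1279, 1.5 × 10^4 parasites/well) faced 8–12-point doubling dilutions in duplicate, incubated 48 h at 37 °C under 3% O2, 5% CO2 in N2. Parasites were imaged and counted at 24 and 48 h. Growth inhibition was taken versus vehicle controls minus background, with IC50 by log-linear interpolation.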

[2] = system: Klebsiella pneumoniae (ATCC 700603); assay: Anti-bacterial activity assay; type: cell-based; details: ATCC700603, 50 µM, read-out: Bacterial Inhibition K. pneumoniae
Description: (§1) The activity of compounds against methicillin resistant Staphylococcus aureus (ATCC 43300), Escherichia coli (ATCC 25922), Acinetobacter baumannii (ATCC 19606) and Klebsiella pneumoniae (ATCC 700603) was assessed at 50 µM in duplicate as previously described. In brief, mid-log phase bacteria cultures were added to 384-well microtiter plate wells containing compound to final cell density of 5 × 10^5 CFU/mL in 50 µL. Plates were then covered and incubated at 37 °C for 18 h without shaking. Inhibition of bacterial growth was determined by measuring absorbance at 600 nm (Tecan M1000 Pro monochromator plate reader) and calculating percentage growth inhibition relative to the negative media and bacteria without inhibitors. Vancomycin hydrochloride (Sigma-Aldrich an affiliate of Merck KGaA, Darmstadt, Germany, #861987) and colistin sulfate (Sigma-Aldrich an affiliate of Merck KGaA, Darmstadt, Germany, C4461) were on each plate as positive controls for Gram-positive (S. aureus) and Gram-negative (E. coli, A. baumannii and K. pneumoniae) bacteria, respectively.

[3] = system: methicillin resistant Staphylococcus aureus (ATCC 43300); assay: Anti-bacterial activity assay; type: cell-based; details: for inhibition at 50 µM: Staphylococcus aureus, ATCC43300, 50 µM, read-out: Bacterial Inhibition S. aureus
Description: as §1

[4] = system: Acinetobacter baumannii (ATCC 19606); assay: Anti-bacterial activity assay; type: cell-based; details: ATCC19606, 50 µM
Description: as §1

[5] = system: Escherichia coli (ATCC 25922); assay: Anti-bacterial activity assay; type: cell-based; details: for inhibition at 50 µM: Escherichia coli, ATCC25922, 50 µM, read-out: Bacterial Inhibition E. coli
Description: as §1

[6] = system: G. duodenalis BRIS/91/HEPU/1279; assay: Primary Giardia screen at 10 µM (live-cell imaging, automated counting); type: cell-based, Giardia duodenalis; details: for inhibition at 10 µM: Giardia duodenalis
How it was run: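 Singlicate, 10 μM final, 0.2% DMSO; sealed chambers, 3% O2/5% CO2/N2. Counts by live-cell imaging at 24 h and 48 h. % growth vs vehicle, media background subtracted; Z' per plate.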

[7] = system: Neonatal foreskin fibroblast (NFF) cells; assay: Mammalian cell cytotoxicity assay (sulforhodamine B); type: cell-based, human; details: for inhibition at 20 µM: ±SD; for SI (48h Gd): Table S2, NFF vs 48 h Giardia IC50
Description: The selectivity of compounds of interest was assessed against NFF cells. Assays were performed using sulforhodamine B and included media only, negative (no compound, no DMSO), and vehicle (DMSO) controls as previously described. A chloroquine control plate was included in each assay. […] Repurchased SN00797640 was tested in dose–response from 100 µM against NFF. Selectivity indices (SI) were calculated by dividing mammalian cell IC50 values by G. duodenalis BRIS/91/HEPU/1279 IC50 values.

[8] = 24 h, read-out: G. duodenalis IC50 24h, Table S2, 24 h, ±SD, max 10 µM
[9] = 48 h, Table S2, 48 h, ±SD, max 10 µM, read-out: G. duodenalis IC50 48h
[10] = 24 h, first singlicate assay, read-out: % Inhibition n=1 24h
[11] = 24 h, re-assessment, read-out: % Inhibition n=2 24h
[12] = 24 h, read-out: Average % Inhibition 24h
[13] = 48 h, first singlicate assay, read-out: % Inhibition n=1 48h
[14] = 48 h, re-assessment, read-out: % Inhibition n=2 48h
[15] = 48 h, read-out: Average % Inhibition 48h

SMILES | IC50 [1, 8] | IC50 [1, 9] | inhibition at 50 µM [2] | inhibition at 50 µM [3] | inhibition at 50 µM [4] | inhibition at 50 µM [5] | inhibition at 10 µM [6, 10] | inhibition at 10 µM [6, 11] | inhibition at 10 µM [6, 12] | inhibition at 10 µM [6, 13] | inhibition at 10 µM [6, 14] | inhibition at 10 µM [6, 15] | inhibition at 20 µM ([7]; Homo sapiens, NFF) | SI (48h Gd) [7] | other results
Nc1c(-c2nc(-c3ccccc3)cs2)c2ccccn2c1C(=O)c1ccc2c(c1)OCO2 [SN00785732, O=C(c1ccc2OCOc2c1)c1c(N)c(c2scc(n2)c2ccccc2)c2ccccn12] | 7.64 µM | 7.68 µM | 9.49% | 2.41% | 9.69% | 0.23% | 64.4% | 62% | 63.2% | 82.4% | 83.8% | 83.1% | 41.6 ± 2.7% | > 2 | 
Cc1ccc(NC(=O)c2cc3c(Cl)ccc4c3n2CCO4)cc1 [SN00788144, Cc1ccc(cc1)NC(=O)c1cc2c(Cl)ccc3OCCn1c23] | > 10 µM | > 10 µM | 13.5% | -2.91% | 20.8% | 2.85% | 41% | 20.1% | 30.5% | 65.8% | 32.9% | 49.3% | 31.4 ± 11.3% |  | 
CC1CCN(C(=O)c2oc3ccccc3c2NC(=O)c2ccc([N+](=O)[O-])o2)CC1 [SN00788467] | 0.24 ± 0.04 µM |  | -1.21% | 99.1% | 3.19% | 3.73% | 93.2% | 82.3% | 87.7% | 93.9% | 96.4% | 95.2% |  | > 166 | fold more potent than metronidazole ([1]; 48 h IC50): > 45 fold; IC50 ([1]; 48 h, BRIS/91/HEPU/1279, 48 h, mean ± SD, read-out: IC50 Giardia (48 h)): 0.06 µM; Bacterial Inhibition S. aureus ([3]; 50 µM): 99%; selectivity index over bacteria ([5]; E. coli, A. baumannii and K. pneumoniae / bacteria, Table S2): > 800; Average % Inhibition 48h ([6]; 48 h): > 90%; IC50 ([7]; Homo sapiens, NFF, mean ± SD, read-out: IC50 NFF): > 10 µM; Selectivity ([7]; NFF IC50 divided by G. duodenalis BRIS/91/HEPU/1279 IC50): >166
CCc1nnc2c3ccccc3nc(N3CCN(c4cccc(Cl)c4)CC3)n12 [SN00788523, CCc1nnc2n1c(nc1ccccc21)N1CCN(CC1)c1cccc(Cl)c1] | > 10 µM | 6.91 µM | 22.1% | 1.08% | 1.85% | 2.37% | 38.2% | 28.9% | 33.6% | 65.8% | 80.4% | 73.1% | -0.2 ± 22.2% | > 2 | inhibition at 10 µM ([1]; 48 h): 44%
COc1cc(NS(=O)(=O)c2ccc(C)cc2)cc2sc(NC(=O)c3ccccc3)nc12 [SN00790147, COc1cc(cc2sc(NC(=O)c3ccccc3)nc12)NS(=O)(=O)c1ccc(C)cc1] | > 10 µM | > 10 µM | 6.94% | 11.9% | 3.03% | -1.53% | 34.5% | 12.8% | 23.6% | 56.9% | 43.2% | 50.1% | 53.3 ± 7.1% |  | 
Cc1ccc(C)c(-c2cc3c4nn(CC(=O)N(C)c5ccc(F)cc5)c(=O)n4ccn3n2)c1 [SN00790641, Fc1ccc(cc1)N(C)C(=O)Cn1nc2c3cc(nn3ccn2c1=O)c1cc(C)ccc1C] | 2.84 µM | 3.41 ± 2.02 µM | 6.73% | -6.6% | 4.72% | 0.25% | 88.6% | 70.6% | 79.6% | 95% | 97.7% | 96.3% | 40.4 ± 1.1% | > 5 | Average % Inhibition 48h ([6]; 48 h): > 90%
O=C(NC1CCCCC1)c1nc(Nc2ccccc2)c2ccccc2n1 [SN00792461, O=C(NC1CCCCC1)c1nc(Nc2ccccc2)c2ccccc2n1] | 5.35 µM | 7.82 µM | 12.6% | 8.09% | 10.8% | 3.63% | 44.7% | 74.4% | 59.5% | 57.7% | 88.5% | 73.1% | 21.3 ± 27.1% | > 2 | 
Cc1ccc(NC(=O)CN2C(=O)C3CCCCN3c3ccc(C(=O)N4CCCC4)cc32)cc1 (centres unmarked) [SN00792764, Cc1ccc(cc1)NC(=O)CN1C(=O)C2CCCCN2c2ccc(cc12)C(=O)N1CCCC1] | > 10 µM | > 10 µM | 5.08% | -1.85% | 4.12% | 3.43% | 43.9% | 27.1% | 35.5% | 59% | 65.8% | 62.4% | 16.6 ± 20.4% |  | inhibition at 10 µM ([1]; 48 h): 45.9%
CCOc1ccc(CCNC(=O)c2ccc3c(c2)nc2n3CCOC2)cc1OCC [SN00792841, CCOc1cc(CCNC(=O)c2ccc3c(c2)nc2COCCn32)ccc1OCC] | > 10 µM | 4.75 ± 4.02 µM | 7.3% | -0.24% | 2.57% | -0.09% | 41.7% | 12.7% | 27.2% | 88.5% | 71.1% | 79.8% | -24.8 ± 15.3% | > 4 | 
